From PubChem BioAssay AID179 (DTP/NCI, 2004)
Where “and” joins values, the source holds several entries; their conditions need not be identical. Equal values may be shown once. Calls of active or inactive are those of the source.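 Rule for the calls: active = compounds giving half or more protection of infected cells from virus-caused growth loss, again on retest; inactive = the rest.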 Where a SMILES comes first, the peptide text is derived from it. [ ]: non-standard residue; d: D form. The star is where a group is joined. ξ: configuration not given here. ξD = NC(CC(=O)O)C(=O)O; Boc = CC(C)(C)OC(=O)*; Aib = CC(C)(N)C(=O)O; OBn = c1ccc(CO*)cc1; OtBu = CC(C)(C)O*

System: CEM cells HIV-1 protection, formazan growth assay
Assay: NCI AIDS Antiviral Assay
Conditions: for IC50: measured here: growth of uninfected CEM cells
Outline: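 Human CEM cells, uninfected and HIV-1-infected, received five drug concentrations, and growth was read by soluble formazan assay. Compounds giving at least 50% protection were retested; reproducible 100% protection defined confirmed active.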

Structure (SMILES) | EC50 | IC50 | outcome
CC(C)CCC[C@@H](C)[C@H]1CC[C@H]2[C@@H]3CC=C4CC(OCCCCN(O)CCCSC5OC(CO)C(O)C(O)C5O)CC[C@]4(C)[C@H]3CC[C@]12C (some centres not stated) | > 200 µM | 35.5 µM | –
Cc1cccc(NC(=O)C(=O)Cc2nc3ccccc3[nH]c2=O)c1C | – | – | inactive
CNC(=O)N(C1CCCCC1)C1CCCCC1 | > 200 µM | 110 µM | –
CC12CC3(C)CC(C)(C1)CC(C(NC(C)(C)C)C(=O)O)(C2)C3 (configuration not stated) | – | – | inactive
O=c1c(Cl)c(Cl)cnn1CCc1ccncc1 | > 132 µM | 7.08 µM | –
N#Cc1c(-c2ccccc2)c(C#N)c(=S)n(C2OC(CO)C(O)C(O)C2O)c1N (configuration not stated) | > 200 µM | 83.2 µM and 64.6 µM | –
CCSCCCCCCCCCCC(=O)OCC1OC(n2cc(C)c(=O)[nH]c2=O)CC1F (configuration not stated) | 0.0132 µM | 0.2 µM | –
CC(C)CCC[C@@H](C)[C@H]1CC[C@H]2[C@@H]3CC[C@H]4C[C@@H](NC(=O)CC=C(c5cc(Cl)c(O)c(C(=O)O)c5)c5cc(Cl)c(O)c(C(=O)O)c5)CC[C@]4(C)[C@H]3CC[C@]12C | 24 µM | 170 µM | –
COC(=O)c1c[nH]cc1CCCCc1c[nH]cc1C(=O)OC | – | – | inactive
CC[Si](CC)(CC)OC(C#N)c1ccc2c(c1)OCO2 (configuration not stated) | – | – | inactive
O=C1NS(=O)(=O)c2cc(Cl)ccc21 | > 1150 µM | > 1150 µM | –
Cc1cccc(/C=N/NC(=S)N2CCCCCC2)n1 | > 200 µM | 0.0631 µM | –
CN1CCc2ccccc2C(C(=O)c2ccc(Cl)cc2)C1=O (configuration not stated) | > 83.2 µM | > 83.2 µM | –
O=c1cc(NNc2cccc(F)c2)[nH]c(=S)[nH]1 | > 200 µM | 87.1 µM | –
CC(=O)c1cc(S(=O)(=O)c2ccc(O)c(C(C)=O)c2)ccc1O | > 200 µM | 42.7 µM | –
C=CCn1c(N)c(C#N)c(C#N)c1-c1ccccc1 | > 200 µM | > 200 µM | –
CC1(C)C=[N+]([O-])C(C)(C)N1O | > 200 µM | > 200 µM | –
CC(=O)OC(Cc1c(O)c2c(C)cccc2oc1=O)C(C)(C)O (configuration not stated) | > 200 µM | 91.2 µM | –
CC/C(=C(\CC)c1ccc(OCCCN2CCCCC2C)cc1)c1ccc(OCCCN2CCCCC2C)cc1 (configuration not stated) | > 20 µM | 2.29 µM | –
CCOc1cc2ccc3c4cc(OC)c(OC)cc4cnc3c2cc1OCC | > 36.3 µM | > 36.3 µM | –
NC(=S)NNC(=O)CCC(=O)Nc1ccccc1Cl | – | – | inactive
COc1cc(C)cc2c1c(=O)c1ccccc1n2C | > 200 µM | 38.9 µM | –

Structure (SMILES) | EC50 | IC50 | outcome
Cc1ccc(/C=C2\CN(C)CC3=C2NC(=S)NC3c2ccc(C)cc2)cc1 (configuration not stated) | > 200 µM | 25.1 µM | –
CCOC(=O)c1c(SC)nc(-c2ccc(Cl)cc2)sc1=N | > 200 µM | 12 µM | –
Cc1nc2ccccc2n1C(=O)c1c(F)c(F)c(F)c(F)c1F | > 200 µM | 33.9 µM | –
O=C(Cc1ccccc1)NN1C(=O)/C(=C\c2ccccc2)SC1=Nc1ccccc1 | > 120 µM | > 120 µM | –
COc1cc(O)c(C(=O)CC(C)=O)c(OC)c1 | > 398 µM | 174 µM | –
COC(=O)C(=NNc1ccccc1[N+](=O)[O-])C(=O)OC | – | – | inactive
Cc1ccc2nc(CN3CCCCC3)cc(=O)n2c1 | > 151 µM | > 151 µM | –
CC1=C(c2cc(C(=O)Nc3nccs3)nc(NC#N)n2)Sc2ccccc2N1 | > 45.7 µM | > 45.7 µM | –
N#CN=C(N)c1sc2nc3c(c(-c4ccc(Br)cc4)c2c1N)CCCC3 | > 200 µM | 7.08 µM | –
COC(CCC[N+](C)(C)C)CC[N+](C)(C)C (configuration not stated) | > 100 µM | > 100 µM | –
OCCSCc1cc2c(O)c(c1)Cc1cc(CSCCO)cc(c1O)Cc1cc(CSCCO)cc(c1O)Cc1cc(CSCCO)cc(c1O)C2 | > 24 µM | 5.01 µM | –
CC1=NC(=O)CNN1C1=NNC2(C(=O)N1)c1ccccc1-c1ccccc12 | > 100 µM | > 100 µM | –
COC12C=CC(CC1)C(C)(C)C2OS(C)(=O)=O (configuration not stated) | – | – | inactive
NC1=NCC(c2ccccn2)C1c1ccc(F)cc1 (configuration not stated) | – | – | inactive
COc1ccc2oc(=S)[nH]c2c1 | > 200 µM | > 200 µM | –
O=C(CCCn1ccnc1[N+](=O)[O-])NCCn1cncc1[N+](=O)[O-] | > 200 µM | > 200 µM | –
NC(=O)CNC(=O)[C@@H]1C[C@@H](OCCC(=O)O)CN1C(=O)OCc1ccccc1 | > 200 µM | > 200 µM | –
CC(C)(C)OC(=O)CC(NC(=O)OC(C)(C)C)C(=O)NC(Cc1ccccc1)C(N)=O (configuration not stated) (Boc-Asp(OtBu)-Phe-NH2; configuration not given here) | 162 µM | > 200 µM | –
NCCC(O)C(=O)NC1CC(N)C(OC2OC(CN)C(O)C(O)C2O)C(O)C1OC1OC(CO)C(O)C(N)C1O (configuration not stated) | – | – | inactive
O=C1CCC(N2C(=O)C3C4C=CC(CC4)C3C2=O)C(=O)N1 (configuration not stated) | > 871 µM | > 871 µM | –
Nc1nc(Cl)cc(NC2(CO)CCC2)n1 | > 200 µM | > 200 µM | –
CNC(=S)NNc1ncnc2c1c(-c1ccc(Cl)cc1)cn2-c1ccc(C)cc1 | – | – | inactive

Structure (SMILES) | EC50 | IC50 | outcome
Cc1cc(Cc2c(F)c(F)c(C(c3cc(C)no3)c3c(F)c(F)c(F)c(F)c3F)c(F)c2F)on1 (configuration not stated) | > 200 µM | 3.39 µM | –
CN(C(=O)C12C3C4C1C1C2C3C41C(N)=O)C(C)(C)C (configuration not stated) | > 52.5 µM | > 52.5 µM | –
O=C(Cn1c(=O)oc2ccc(C(=O)c3cccc(Cl)c3)cc21)c1ccccc1 | > 200 µM | 56.2 µM | –
CN1C/C(=C\c2cccs2)C2=NN(C)C(c3cccs3)C2C1 (configuration not stated) | > 200 µM | > 200 µM | –
O=C1C(C2CCCCC2)=C2OCC3COC2(O3)c2ccccc21 (configuration not stated) | > 74.1 µM | 30.2 µM | –
Cc1cc(N(C)C)c(C=O)c(C)c1C=O | > 1230 µM | 93.3 µM | –
CCOC(=O)C12C3C(=O)N(CC)C(=O)C3ON1OC1C(=O)N(CC)C(=O)C12 (configuration not stated) | > 661 µM | 81.3 µM | –
O=C1NC2(NC(=O)C1=O)Nc1ccccc1S2 | > 28.8 µM | > 28.8 µM | –
O=C(C[n+]1ccccc1)N/N=C(\Cc1nc2ccc([N+](=O)[O-])cc2[nH]c1=O)C(=O)Nc1cc(Cl)c(Cl)cc1Cl | > 79.4 µM | 66.1 µM | –
COc1ccc2c(c1)CCc1c-2n(CCN2CCCCC2)c2ccc(OC)cc12 | > 100 µM | > 100 µM | –
COC(=O)c1ccc(C)cc1C1CN=NC12Cc1cc(C)ccc1C2=O (configuration not stated) | > 200 µM | 9.77 µM | –
O=C1OC(=O)c2cc(S(=O)(=O)c3ccc4c(c3)C(=O)OC4=O)ccc21 | > 200 µM | > 200 µM | –
O=C(CCCCCCCCC(=O)N1C(=O)CC(=O)N(c2ccccc2)C1=S)N1C(=O)CC(=O)N(c2ccccc2)C1=S | > 200 µM | 123 µM | –
COc1c(Cl)cc(C(=CCC(=O)O)c2cc(Cl)c(OC)c(C(=O)O)c2)cc1C(=O)O | 30.2 µM | > 200 µM | –
COc1ccc(/C=N/NC(=O)CSc2nc(-c3ccccc3)c(-c3ccccc3)[nH]2)cc1OC | > 55 µM | 31.6 µM | –
CC1CN=C(N(C(=O)Nc2ccccc2)c2ccccc2)S1 (configuration not stated) | > 200 µM | > 200 µM | –
CCOc1ccc(C(=O)CCN2CCC3CCC(C3)C2)cc1 (configuration not stated) | > 200 µM | 13.8 µM | –
Nc1cccc(C(=O)/C=C/c2ccccc2O)c1 | > 282 µM | 55 µM | –
NC1CCC(C(=O)C2CCC(O)CC2O)CC1 (configuration not stated) | > 200 µM | 18.2 µM | –
COC(=O)C(C(=O)C(=O)Nc1ccc([N+](=O)[O-])cc1[N+](=O)[O-])c1nc2ccc(Cl)cc2[nH]c1=O (configuration not stated) | > 74.1 µM | 66.1 µM | –
CC(C)O/N=C/c1cc(NC(=S)OC(C)C)ccc1Cl | 0.0447 µM | 22.9 µM | –
CNn1c(C)n[nH]c1=O | > 200 µM | > 200 µM | –

Structure (SMILES) | EC50 | IC50 | outcome
N#Cc1c(N)c(C(=O)Nc2ccc(S(N)(=O)=O)cc2)n2c1CCC2 | > 200 µM | > 200 µM | –
COC(=O)C1C23CC(=O)CC1(c1ccc4c(c1)OCO4)C2NC3=O (configuration not stated) | > 398 µM | > 398 µM | –
CC(C)c1cc(C(=O)[O-])c(O)c(C(C)C)c1.CC(C)c1cc(C(=O)[O-])c(O)c(C(C)C)c1.CC(C)c1cc(C(=O)[O-])c(O)c(C(C)C)c1.CC(C)c1cc(C(=O)[O-])c(O)c(C(C)C)c1.CC(C)c1cc(C(=O)[O-])c(O)c(C(C)C)c1.CC(C)c1cc(C(=O)[O-])c(O)c(C(C)C)c1.[Cu+2].[Mn+2].[Mn+2] | > 21.4 µM | 10.7 µM | –
O=C1CCC(C(=O)O)C2=C1CCCC2 (configuration not stated) | – | – | inactive
CC(=O)NC1(C)CC[C@H]2CC1C(C)=NC2(C)C (some centres not stated) | > 1050 µM | > 1050 µM | –
CCOP(=O)(CN=C(c1ccccc1)c1ccccc1)OCC | > 200 µM | > 200 µM | –
C=CCN=C1NC(=O)C(CC(=O)Nc2ccc([N+](=O)[O-])cc2[N+](=O)[O-])S1 (configuration not stated) | > 13.8 µM | > 13.8 µM | –
N#CC(C#N)=CNC(=S)Nc1ccc(Cl)c(Cl)c1 | > 200 µM | 15.1 µM | –
CC(C)(C)OC(=O)NC(CC(=O)OCc1ccccc1)C(=O)NC(C)(C)C(N)=O (configuration not stated) (Boc-[ξD](OBn)-[Aib]-NH2) | > 200 µM | > 200 µM | –
N#Cc1nc(-c2cccs2)oc1N | > 200 µM | > 200 µM | –
Nc1nc2c(ncn2Cc2ccccc2CCO)c(=O)[nH]1 | > 47.9 µM | > 47.9 µM | –
COc1ccc2c(c1)CC1c3[nH]c4ccccc4c3CCN1C2 (configuration not stated) | 56.2 µM and > 102 µM | 102 µM and 46.8 µM | –
c1ccc(C2CN=C(c3ccccn3)C(c3ccccn3)=N2)cc1 (configuration not stated) | > 60.3 µM | > 60.3 µM | –
Brc1ccc(-c2[nH]c3ccccc3c2N=Nc2ccccc2)cc1 | > 200 µM | 13.5 µM | –
CCOC(=O)/C=C/CC(C)(C)CCOC(C)=O | > 200 µM | > 200 µM | –
O=C(Cn1c(=O)sc2ccc(Cl)cc21)N1CCN(CCO)CC1 | > 200 µM | > 200 µM | –
CN(C)CC1CCCCCC(CN(C)C)C1=O (configuration not stated) | > 20 µM | 1.07 µM | –
CC1CC(C)(C)N=C(CCCO)O1 (configuration not stated) | > 200 µM | > 200 µM | –
Cc1nc(-c2ccccc2)cc2c1c(=O)oc1ccccc12 | > 5.01 µM | > 5.01 µM | –
CC1=CC(N2C(=O)C(C)=CC2O)NC1=O (configuration not stated) | – | – | inactive
CNc1nc(=O)c(C#N)c(-c2ccc(C)cc2)s1 | 166 µM | > 200 µM | –
